Ki data for one compound are collected here from BindingDB's records for doi:10.1021/jm010566d (University Center For Pharmacy, 2002).

A short description of the experiment: The binding affinity at 5-hydroxytryptamine 1D receptor was determined using [3H]5-CT.

The term Ki denotes the dissociation constant of the complex between target and ligand, obtained from inhibition or displacement. A lower Ki goes with a stronger hold on the target.

Compound `COc1cccc2c1N1CCN(C)C[C@@H]1c1ccccc1C2` [(+)-65-Methoxy-2-methyl-1,2,3,4,9,13b-hexahydro-2,4a-diaza-tribenzo[a,c,e]cycloheptene] returned a Ki of 1470 nM. This lies in the single-digit micromolar range.
